Values joined by “and” are separate entries in the source; they are usually repeats but may differ in a detail not shown here. Equal values may be shown once. Marks after values point to notes of the source that are not given here.
How the values were obtained:
[1] = tested on: L. monocytogenes ATCC 13932; assay: Broth microdilution assay (OD 600 nm); assay type: cell-based, Listeria monocytogenes
Description: (§1) Serrawettin W2-FL10 (95% pure) was tested for antibacterial activity using a broth microdilution susceptibility assay ([6]), with melittin included as an antibiotic control. The serrawettin W2-FL10 was prepared in 70% MeCN to 1.00 mg/mL, from which aliquots were prepared using 70% MeCN to a concentration of 50 µg/mL or 500 µg/mL, while aliquots of melittin were prepared using analytical quality H2O to 128 µg/mL. Fifty microliters of the respective W2-FL10 aliquots or melittin were dispensed into a clear 96-well plate and a microdilution (in 70% MeCN for W2-FL10 or analytical quality H2O for melittin) was performed within the plate. The plate was air-dried to remove the solvent and placed in a desiccator with chloroform for 20 min for sterilization.
(§2) All the cultures (inoculated into 5 mL MHB, or 5 mL TSB for Listeria and Enterococcus strains) were incubated at 37°C to reach an optical density (OD) of 0.4 at 600 nm (∼10^7 CFU/mL). A 1:20 dilution of the test strain (final concentration of ∼10^5 CFU/mL) was prepared and 100 µL was dispensed into each well (final concentration of W2-FL10 at 1.5–125 µg/mL and melittin at 2–32 µg/mL). Sterile broth and the OD-adjusted inoculum were included as positive controls, while sterile broth (no inoculum) was included as a negative control. The 96-well plate was incubated for 18 h at 37°C. All the tests were performed in triplicate, with independent duplicates. Following incubation, the absorbance was measured using a microtiter plate reader at 600 nm. The 50% growth inhibition concentration (IC50) was determined using GraphPad Prism version 5 for Windows [GraphPad Software, San Diego, USA (www.graphpad.com)]. A sigmodal curve with variable slope was fitted to each set of dose-repose data according to Rautenbach et al. ([17]) using equation (1):
(§3) (1) Y=bottom+(top−bottom)/1+10^logIC50×Activity slope
(§4) The “top” and “bottom” are the maximum and minimum inhibition responses, respectively, for a particular set of dose-response data, while the activity slope is related to the Hill slope of a sigmoidal binding curve ([16]). […] The MIC value was determined for each set of dose-response data as the lowest concentration, resulting in ≥90% inhibition of the target cell growth. In addition to the MIC and IC50 inhibition parameters, an inhibition concentration factor (ICF), was calculated as outlined in Rautenbach et al. ([17]). The ICF is indicative of the concentration increase from the highest concentration where no activity is observed to the MIC of a compound.

E. faecalis ATCC 7080 = assay: Broth microdilution assay (OD 600 nm); assay type: cell-based, Enterococcus faecalis
Description: as §1, §2, §3, §4

E. faecalis S1 = assay: Broth microdilution assay (OD 600 nm); assay type: cell-based, Enterococcus faecalis
Description: as §1, §2, §3, §4

[2] = Mammalian cell cytotoxicity, MTT assay; details: CHO cells
Description: (§5) To determine the biocompatibility of W2-FL10 as a potential therapeutic agent, the in vitro cytotoxicity of W2-FL10 against the CHO cell line ([50]) was determined over 48 h by the Drug Discovery and Development Centre at the University of Cape Town, as previously described by Mosmann ([51]). Briefly, W2-FL10 was prepared to a 10 mM stock solution in 100% DMSO and dilutions were prepared in growth media. The CHO cell line density of 10^5 cells/well in 96-well plates and allowed to attach for 24 h. Thereafter, the compound was added to the 96-well plates at various concentrations from 50 µM down to 16 nM and incubated for a further 48 h. At 44 h, MTT was added to the wells, and the plates were read 4 h later at 540 nm on a spectrophotometer. […] Finally, cell inhibition was plotted against concentration and the 50% lethal concentration (LC50) parameter and a minimum lethal concentration (MLC90) were obtained as described for the dose responses against bacterial targets above (equation 1).

[3] = tested on: Chinese hamster ovarian (CHO) cell line; assay: Mammalian cell cytotoxicity, MTT assay; details: CHO cells
Description: as §5

MRSA Xen 30 = assay: Scanning electron microscopy; assay type: cell-based, Staphylococcus aureus; details: 25 µg/mL, 1 h
Description: (§6) SEM was performed to visualize the bacterial membrane morphology following treatment ([24]). Briefly, the S. aureus strains were prepared as described in the “Antibacterial activity: broth microdilution assay” section and harvested by centrifugation at 3,000 rpm for 10 min. The cells were re-suspended in PBS at a dilution of ~10^7 CFU/mL (OD600 = 0.4). The diluted cultures were then treated with 25 µg/mL of W2-FL10, for 1 h, while cells without W2-FL10 were used as a control. Specimens were resuspended in 2.5% (vol/vol) glutaraldehyde solution in 0.1 M PBS (pH 7.2) and fixed for approximately 24 h. After the primary fixation, bacterial cells were pelleted and rinsed with PBS. Dehydration of samples through an ethanol series (30%, 50%, 70%, 90%, 95%, and 100% for 10 min each) was performed, followed by filtration onto a filter paper (pore size of 0.2 µm), which was glued onto an aluminum grid (11 mm diameter). The grid was dried with hexamethyldisilazane and coated with gold-palladium alloy. The grids were then inspected with a Tescan MIRA3 RISE Scanning Electron Microscope at the Electron Microscope Unit of the University of Cape Town.

S. aureus ATCC 25923 = assay: Scanning electron microscopy; assay type: cell-based, Staphylococcus aureus; details: 25 µg/mL, 1 h
Description: as §6

S. aureus RN4220 = assay: Scanning electron microscopy; assay type: cell-based, Staphylococcus aureus; details: 25 µg/mL, 1 h; primarily one large lesion per cell
Description: as §6

[4] = Lipophilicity, miniaturized shake-flask log D; assay type: physicochemical; details: 96-well, 1-octanol/phosphate buffer pH 7.4, shaken 2 h at 25°C, HPLC-UV
Description: The lipophilicity of the compound was measured using a miniaturized shake-flask method, in 96-well plate format ([48]). Briefly, equal volumes of 1-octanol and phosphate buffer at pH 7.4 were added to each compound in a deep well plate. The plate was shaken vigorously for 2 h at 25°C. The phases were then carefully separated and transferred to another plate. Analysis was performed by HPLC-UV and log D values were determined from the peak areas of the compound in octanol and buffer phases.

[5] = 50% growth inhibition, sigmoidal curve fit, n = 3
[6] = inhibition concentration factor
[7] = ≥90% growth inhibition, OD 600 nm, TSB, 18 h 37°C

Compound: CCCCCCCC1CC(=O)N[C@H](CC(C)C)C(=O)N[C@@H](CO)C(=O)N[C@@H]([C@@H](C)O)C(=O)N[C@H](Cc2ccccc2)C(=O)N[C@@H](CC(C)C)C(=O)O1 (stereo partly drawn) [W2-FL10, serrawettin W2-FL10]
- IC50 ± SD [1, 5]: 3.8 ± 0.2 (3) µg/mL
- Selectivity index ([1]; LC50 (CHO)/IC50): 7.6
- ICF (MIC/IC50)^2 [1, 6]: 2.7
- MIC [1, 7]: 6.3 μg/mL and 6.3 (8.5) μg/mL
- IC50 ± SD (E. faecalis ATCC 7080; [5]): 3.2 ± 0.3 (3) µg/mL
- Selectivity index (E. faecalis ATCC 7080; LC50 (CHO)/IC50): 9.1
- MIC (E. faecalis ATCC 7080; [7]): 6.3 μg/mL and 6.3 (8.5) μg/mL
- IC50 ± SD (E. faecalis S1; [5]): 5.2 ± 0.5 (3) µg/mL
- Selectivity index (E. faecalis S1; LC50 (CHO)/IC50): 5.6
- ICF (MIC/IC50)^2 (E. faecalis S1; [6]): 5.4
- MIC (E. faecalis S1; [7]): 12.5 μg/mL and 12.5 (17.1) μg/mL
- CC50 at 48 h [2]: 40 µM and 29 µg/mL
- MLC, minimum lethal concentration ([3]; MTT, 48 h, MLC90): 36.6 (50.0)^e μg/mL
- ICF (MIC/IC50)^2 ([3]; from MLC and LC50): 1.6
- morphology by SEM, in words (MRSA Xen 30): Minor morphological changes
- morphology by SEM, in words (S. aureus ATCC 25923): Minor morphological changes
- morphology by SEM, in words (S. aureus RN4220): more significant cell damage
- logD at 2 h [4]: 2.5

Source: paper PMC11218446, “Antibacterial efficacy and membrane mechanism of action of the Serratia-derived non-ionic lipopeptide, serrawettin W2-FL10” (Microbiology Spectrum, 2024)
